Reference: patent publication US20180078576A1, “SULPHATED XYLANS FOR TREATMENT OR PROPHYLAXIS OF RESPIRATORY DISEASES” (Paradigm Biopharmaceuticals Limited, priority 2007, published 2018)
Marks after values point to notes of the source that are not given here.

Key:
[1] = test system: Guinea-pigs sensitized to ovalbumin; experiment: Guinea pig model of asthma, airway hyper-reactivity 24 h after OVA challenge; assay type: in vivo; conditions: Dexamethasone 15 mg/kg, glycan compounds 10 mg/kg, intratracheal microspray
Experimental: A guinea pig model of asthma was used. Guinea-pigs (8 per group) were sensitized to ovalbumin by two intraperitoneal injections of ovalbumin (grade V, 20 μg) in aluminium hydroxide gel on Days 1 and 11. On day 20 (24 hours prior to assessing airway hyper-reactivity (AHR)) each animal received a challenge dose of OVA—this took the form of a 1 hour aerosol exposure of OVA (10 μg). The negative control animals received, no sensitization and no challenge. The positive controls were sensitized and challenged but were either given no further treatment or were treated with vehicle (saline). Test compounds (PPS and the sulfated xylan pentasaccharide) and vehicle were administered by intratracheal administration as an aqueous microspray using a Penn Century device. The device used was the FMJ250 high pressure syringe and a 1A-1C microspray delivery tube. The particle size delivery goes up to 32 μm. During the study the volume delivered was 100 ul for all test formulations. The test compounds were administered 30 min before challenge with OVA. The animals underwent surgery 24 hours after challenge to insert a cannula into the trachea, the cannula was connected to the instrumentation which measured pressure and changes in airflow. After surgery the animals were allowed to stabilize for 10 min before baseline readings were taken. Bronchoconstriction was evoked with aerosolized methacholine (10 mg/ml and 30 mg/ml) for 20 seconds. The difference between baseline readings and that obtained after methacholine were used to calculate Cdyn and RL. Thus, measurements of lung function were taken approximately 25 hours after the drug was administered. Both pentosan polysulfate and the sulfated xylan pentasaccharide when administered at 10 mg/kg were effective in reducing the airway hyper-reactivity readings. Their efficacy was approximately equivalent to that usually seen with 7.5 mg/kg of dexamethasone in this model.

[2] = target: T1, recombinant human IL-5 (rhIL-5) (Homo sapiens, UniProt P05113); experiment: BIAcore inhibition of IL-5 binding to immobilized heparin; conditions: BIAcore chip, titration, FIG. 3B
T1 construct: made in house; host or cells: baculovirus expression system
T1 sequence (P05113 20-134): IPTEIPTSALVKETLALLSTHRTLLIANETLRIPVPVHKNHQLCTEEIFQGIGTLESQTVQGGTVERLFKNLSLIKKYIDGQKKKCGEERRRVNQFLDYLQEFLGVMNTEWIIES
Description: (§1) The optical phenomenon of surface plasmon resonance is used to monitor physical interactions between molecules. Passing a solution of a potential protein ligand (e.g. IL-4, IL-5 or eotaxin) over a sensor surface to which a target (e.g. heparin) is coupled monitors the real-time binding of protein ligands to the immobilized target. Detection is achieved by measuring refractive index changes very close to the sensor surface. When the refractive index is altered, the angle at which plasmon resonance occurs changes and this change directly correlates with the amount of protein interacting with the surface. A BIAcore 2000 is conveniently used. […]
(§2) Biotinylated heparin is immobilized on the biosensor chip. […] Solutions containing potential protein ligands of interest are injected over the sensor chip surface, and the binding is measured in real time (Fernig, In: Proteoglycan protocols, Ed. R. V. Iozzo, Humana Press, Totowa, N.J., USA, 2001). Baculovirus expressed recombinant human IL-4 (rhIL-4) and baculovirus expressed recombinant human IL-5 (rhIL-5) readily bind to heparin immobilized by this method (see PCT/AU2005/000551). […] Similarly, recombinant human eotaxin (CCL11) expressed in E. coli binds readily to immobilized heparin and binding is specific as there is little eotaxin binding to sensor chips lacking heparin. […]

[3] = target: T2, recombinant human eotaxin (CCL11) (Homo sapiens, UniProt P51671); experiment: BIAcore inhibition of eotaxin-1 binding to immobilized heparin; conditions: BIAcore chip, FIG. 3D
T2 construct: host or cells: E. coli
Description: as §1, §2

Human leukocyte elastase = target: T3, Human leukocyte elastase (Homo sapiens, UniProt P08246); experiment: Elastase assay with fluorogenic substrate; assay type: biochemical; conditions: fluorogenic substrate MeOSuc-Ala-Ala-Pro-Val-amido-methylcoumarin, pH 7.4, 37° C., 60 minutes; read-out: IC50, inhibition of human leukocyte elastase activity
T3 sequence (P08246 30-267): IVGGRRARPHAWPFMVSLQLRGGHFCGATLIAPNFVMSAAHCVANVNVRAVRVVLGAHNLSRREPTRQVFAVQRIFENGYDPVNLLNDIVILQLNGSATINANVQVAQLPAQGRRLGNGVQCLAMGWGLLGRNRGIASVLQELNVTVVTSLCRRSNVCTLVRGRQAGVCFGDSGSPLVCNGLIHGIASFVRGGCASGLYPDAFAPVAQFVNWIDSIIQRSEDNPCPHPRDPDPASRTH
Experimental: Elastase is a protein that is a potential target for the treatment of COPD. Elastase assays were performed in 96-well plastic microplates for easy quantification by the fluorescent plate reader. Human leukocyte elastase (5 nM/well) was incubated in the presence of absence of pentosan polysulfate, or other sulfated polysaccharides, with the fluorogenic substrate MeOSuc-Ala-Ala-Pro-Val-amido-methylcoumarin (20 μM/well) in a sodium phosphate buffer, pH 7.4. The mixture was incubated at 37° C. for 60 minutes before the reaction was stopped by the addition of 10 μl/well of […] acetic acid and the mixture transferred to a 96-well microplate with fluorescence being measured using an excitation wavelength of 355 nm and an emission wavelength of 460 nm. Various concentrations of inhibitors were used to allow the calculation of the concentration of polysaccharide required to inhibit enzyme activity by 50% (IC50).

IC50 [2] [nM]	IC50 [3] [nM]	IC50 (Human leukocyte elastase) [nM]	Compound	Cdyn, % increase from that of the positive control ([1]; MCh 10 mg/ml) [% **]	RL, % decrease from that of the positive control ([1]; MCh 10 mg/ml) [% **]	Cdyn, % increase from that of the positive control ([1]; MCh 30 mg/ml) [% **^]	RL, % decrease from that of the positive control ([1]; MCh 30 mg/ml) [% **]
–	–	–	C[C@@H]1C[C@H]2[C@@H]3CCC4=CC(=O)C=C[C@]4(C)[C@@]3(F)[C@@H](O)C[C@]2(C)[C@@]1(O)C(=O)CO [Dexamethasone]	76.5	93.9	84.8	86
30 to 100	~160	~200	heparin	–	–	–	–
